# In publication PMC9899896, “Application of a new approach methodology (NAM)-based strategy for genotoxicity assessment of data-poor compounds” (Frontiers in Toxicology, 2023):
# Read-outs that look alike come from different tables or passages of the source.
# How the values were obtained:
# [1] = system: human lymphoblastoid TK6 cells; test: TGx-DDI transcriptomic biomarker classification (TempO-Seq S1500+) and BMC modeling; settings: for TGx-DDI summary classification: TK6 cells, 4H exposure; for Strength / consistency of TGx-DDI response (text): across concentrations and the three statistical analyses; for TGx-DDI classification: overall call from 2-DC, PCA, NSC-PA, S9 condition as in Figure 1
# [2] = system: human lymphoblastoid TK6 cells; test: MultiFlow DNA Damage assay (γH2AX, p53, p-H3, polyploidy); assay type: cell-based
# Procedure: Treated cells were gently resuspended and 25 µL/well was mixed thoroughly with the labeling solution. The plate was incubated for 30 min at room temperature shielded from light.
# The γH2AX and p53 endpoints were measured based on their median fluorescence intensity (i.e., mean channel fluorescence or MCF) relative to the DMSO solvent control. The p-H3 and polyploidy endpoints were measured based on their frequencies among all events (i.e., all 2n–4n and polyploidy (8n) DNA content). The equations for calculating γH2AX shift, nuclear p53 shift, % polyploidy, and % p-H3 positive events are shown below.
# Latex microspheres were used as counting beads to determine nuclear density.
# Litron developed Global Evaluation Factors (GEF) to identify a biologically significant increase in select biomarker levels.
# A clastogenic or aneugenic call required two successive concentrations that met or exceeded the GEFs in at least 2 of the 4 respective MoA biomarkers. Chemicals that met or exceeded two GEFs in a single non-cytotoxic concentration were designated as “weak” responses. In cases where both clastogen and aneugen biomarkers exceeded the GEF the MoA was considered pan-genotoxic. In cases where less than two biomarkers met the GEFs, the call was non-genotoxic.
# [3] = system: human lymphoblastoid TK6 cells; test: In vitro MicroFlow assay (flow cytometry-based micronucleus test); settings: for MicroFlow summary classification (MN induction): TK6 cells, 4H exposure, 24-h sampling; for MicroFlow %MN response (text): positive: >2.5 fold-increase in %MN and p < 0.05 vs vehicle
# [4] = Viability assessment (propidium iodide fluorescence, flow cytometry); settings: human, TK6 lymphoblastoid cells with S9
# [5] = system: human lymphoblastoid TK6 cells; test: Integrated NAM-based test strategy (TGx-DDI + MicroFlow + MultiFlow; ToxPi integration of BMCs); settings: from TGx-DDI, MicroFlow and MultiFlow calls
# [6] = system: chromosome damage; parameters: method as in Matsushima et al., 1999; Von Der Hude et al., 2000; settings: ref Matsushima et al., 1999; Von Der Hude et al., 2000; cited from earlier work
# [7] = system: human lymphoblastoid TK6 cells
# [8] = system: chromosome damage; parameters: method as in De Boeck et al., 2005; settings: ref De Boeck et al., 2005; cited from earlier work
# [9] = system: human lymphoblastoid TK6 cells; test: Viability assessment (propidium iodide fluorescence, flow cytometry); settings: TK6 cells, ± S9, quantified at 24 h via propidium iodide
# [10] = system: HepaRG™ cells; parameters: method as in Buick et al., 2020; settings: ref Buick et al., 2020; cited from earlier work
# [11] = system: HepaRG™ cells; parameters: method as in Buick et al., 2020; settings: ref Buick et al., 2020; cited from earlier work; remark: listed apart in the source
# [12] = system: MN; settings: known apoptogens; ref Avlasevich et al., 2021; cited from earlier work
# [13] = follow-up assay; ref Avlasevich et al., 2021; cited from earlier work
# [14] = system: %MN; parameters: method as in SCCP, 2006; settings: ref SCCP, 2006, cited from earlier work
# [15] = +S9 (rat liver S9), 3 h recovery
# [16] = +S9, TK6 cells, 4H and 24H sampling
# [17] = -S9, TK6 cells, 4H and 24H sampling
# [18] = fold-increase over solvent control
# [19] = GEF-based call, in at least one S9 condition
compound,measurement,setting,value
"Nc1ccc(Cl)cc1C(=O)c1ccccc1 [NSACB 1, 2-amino-5-chlorobenzophenone]",TGx-DDI summary classification,[1]; [15],+
same,TGx-DDI summary classification,[1]; -S9,-
same,Strength / consistency of TGx-DDI response (text),[1]; listed as #1,weaker DDI responses
same,Strength / consistency of TGx-DDI response (text),[1]; listed as NSACB #1,one DDI call at the highest concentration in the NSC-PA only
same,TGx-DDI classification,[1],DDI
same,MultiFlow MoA classification,[2],non-genotoxic
same,MultiFlow summary classification (call and MoA),[2],-
same,MultiFlow biomarkers with responses,[2]; human,"moderate to robust response increase in one of the aneugenic biomarkers (i.e., 4H p-H3)"
same,MicroFlow summary classification (MN induction),[3]; +S9,+
same,MicroFlow summary classification (MN induction),[3]; -S9,+
same,MicroFlow %MN response (text),[3],robust fold-increase in %MN with a clear concentration-response relationship
same,viability at 24 h,[4],43%
same,Integrated hazard conclusion,[5],somewhat ambiguous
"Cc1c2ccccc2c(C)c2c1ccc1ccccc12 [DMBA, 7,12-dimethylbenz[a]anthracene, reference compound]",Strength / consistency of TGx-DDI response (text),[1],strong TGx-DDI response
same,TGx-DDI classification,[1],DDI
same,Chromosome damage in vitro,[6],induce chromosome damage
same,MultiFlow summary classification (call and MoA),[2]; [16],+ C
same,MultiFlow summary classification (call and MoA),[2]; [17],-
same,MultiFlow biomarkers with responses,[2]; [18],4H & 24H ɣH2AX
same,TGx-DDI summary classification,[7],+
same,MicroFlow summary classification (MN induction),[3]; +S9,+
same,MicroFlow summary classification (MN induction),[3]; -S9,+
same,MicroFlow %MN response (text),[3],significant fold-increases in %MN
same,Chromosome damage in vivo,[8],induce chromosome damage
same,Effect on cell viability,[9],caused a decline in viability
COc1cc2c(c(OC)c1OC)-c1ccc(OC)c(=O)cc1[C@@H](NC(C)=O)CC2 [colchicine],TGx-DDI classification,[10],negative (non-DDI)
same,MN result,[11],positive
carbonyl cyanide m-chlorphenyl hydrazone [CCCP],MicroFlow MN result,[12],induce MN
same,MultiFlow classification,[13],non-genotoxicants
"COc1ccc(NCCO)cc1N [NSACB 7, 2-[(3-amino-4-methoxyphenyl)amino]ethanol]",TGx-DDI summary classification,[1]; [15],+
same,TGx-DDI summary classification,[1]; -S9,+
same,Strength / consistency of TGx-DDI response (text),[1],strongest responses
same,TGx-DDI classification,[1],DDI across all concentrations except the lowest
same,Strength of MultiFlow biomarker response (text),[2],more moderate responses
same,MultiFlow summary classification (call and MoA),[2]; [16],+ C
same,MultiFlow summary classification (call and MoA),[2]; [17],+ C
same,MultiFlow MoA classification,[2]; [19],clastogens
same,MultiFlow biomarkers with responses,[2]; [18],4H p53 and 4H ɣH2AX
same,In vitro micronucleus result (OECD 487),[14]; with S9,statistically significant and biologically relevant increase in the frequency of %MN
same,In vitro micronucleus result (OECD 487),[14]; without S9,equivocal
same,MicroFlow summary classification (MN induction),[3]; +S9,+
same,MicroFlow summary classification (MN induction),[3]; -S9,+
same,MicroFlow %MN response (text),[3]; listed as 7,robust fold-increase in %MN with a clear concentration-response relationship
same,MicroFlow %MN response (text),[3]; listed as NSACB #7,stronger %MN frequency in the +S9 condition at the highest concentration
same,Integrated hazard conclusion,[5],"genotoxic in vitro, causing DNA damage via a clastogenic MoA"
C[C@H]1CCC/C=C/[C@@H]2C[C@H](O)C[C@H]2[C@H](O)/C=C/C(=O)O1 [brefeldin A],MicroFlow MN result,[12],induce MN
same,MultiFlow classification,[13],non-genotoxicants
"Cc1ccc(NCCO)c([N+](=O)[O-])c1 [NSACB 8, 2-[(4-methyl-2-nitrophenyl)amino]ethanol]",TGx-DDI summary classification,[1]; [15],+
same,TGx-DDI summary classification,[1]; -S9,-
same,Strength / consistency of TGx-DDI response (text),[1]; listed as 8,weaker DDI responses
same,Strength / consistency of TGx-DDI response (text),[1]; listed as NSACB #8,two DDI calls at the highest concentration by NSC-PA and PCA
same,TGx-DDI classification,[1],DDI
same,MultiFlow summary classification (call and MoA),[2]; [16],-
same,MultiFlow summary classification (call and MoA),[2]; [17],-
same,MultiFlow MoA classification,[2]; [19],non-genotoxic
same,MicroFlow summary classification (MN induction),[3]; +S9,+
same,MicroFlow summary classification (MN induction),[3]; -S9,-
same,MicroFlow %MN response (text),[3]; listed as 8,robust fold-increase in %MN with a clear concentration-response relationship
same,MicroFlow %MN response (text),[3]; listed as #8,only tested positive with S9 conditions
same,viability at 24 h,[4],46%
same,Integrated hazard conclusion,[5],somewhat ambiguous
